According to patent US11396504B2, “Alkoxybenzo-five-membered (six-membered) heterocyclic amine compound and pharmaceutical use thereof” (FUDAN UNIVERSITY, priority 2018, dated 2022):

Key:
[1] = biological target: T1, Sphingomyelin Synthase 1 (SMS1 pure enzyme) (Homo sapiens, UniProt Q86VZ5); experiment: In vitro SMS1 pure enzyme inhibition, HPLC fluorogenic quantitative detecting method; format: biochemical
T1 construct: Yu, Cao research group of National Protein Science Center (Shanghai)
T1 sequence (Q86VZ5 1-413): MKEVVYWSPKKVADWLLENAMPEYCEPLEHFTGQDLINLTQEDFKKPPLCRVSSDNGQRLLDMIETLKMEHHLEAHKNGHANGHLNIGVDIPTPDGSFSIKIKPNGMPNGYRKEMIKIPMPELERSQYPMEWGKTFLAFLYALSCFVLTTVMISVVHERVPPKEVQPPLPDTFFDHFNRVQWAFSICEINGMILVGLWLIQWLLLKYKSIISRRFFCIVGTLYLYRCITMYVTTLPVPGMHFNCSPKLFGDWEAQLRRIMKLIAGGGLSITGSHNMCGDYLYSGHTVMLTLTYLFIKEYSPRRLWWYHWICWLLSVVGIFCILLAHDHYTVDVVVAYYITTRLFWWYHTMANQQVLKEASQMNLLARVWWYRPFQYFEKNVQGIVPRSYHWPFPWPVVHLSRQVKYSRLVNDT
Text: Referring to the above SMS2 inhibitory activity detection method, and using SMS1 pure enzyme instead of SMS2 pure enzyme for corresponding operation.
(§1) Using the same HPLC fluorogenic quantitative detecting method as reference (Xiaodong Deng; Hong Sun; et al. Analytical Letters, 2012, 45:12, 1581-1589) to analyses samples obtained above. Analysize and record peak areas of C6-NBD-SM (Asm) and C6-NBD-Ceramide (Acer) of each sample from blank group, positive control group (compound D2) and under tested compound group. Calculate inhibition rate from the formula below: […]
Part 4. Determination of SMS1 Median Inhibitory Concentration (IC50) and SMS1 Single Concentration (50 μM) Inhibitory Concentration of Alkoxybenzeno Five- or Six-Member Heterocyclic Amines (Scheme I-1˜I-38)
The experiment can be carried out with the corresponding concentration according to the operation similar to the determination of the median inhibitory concentration (IC50) of SMS2.

[2] = biological target: T2, Sphingomyelin Synthase 2 (SMS2 pure enzyme) (Homo sapiens, UniProt Q8NHU3); experiment: In vitro SMS2 pure enzyme inhibition, HPLC fluorogenic quantitative detecting method (C6-NBD-Ceramide to C6-NBD-SM); format: biochemical; conditions: for IC50: SMS2 pure enzyme, five concentrations, three parallel groups, experimental value; for Selectivity ratio: SMS1 IC50 relative to SMS2 IC50
T2 construct: Yu, Cao research group of National Protein Science Center (Shanghai)
T2 sequence (Q8NHU3 1-365): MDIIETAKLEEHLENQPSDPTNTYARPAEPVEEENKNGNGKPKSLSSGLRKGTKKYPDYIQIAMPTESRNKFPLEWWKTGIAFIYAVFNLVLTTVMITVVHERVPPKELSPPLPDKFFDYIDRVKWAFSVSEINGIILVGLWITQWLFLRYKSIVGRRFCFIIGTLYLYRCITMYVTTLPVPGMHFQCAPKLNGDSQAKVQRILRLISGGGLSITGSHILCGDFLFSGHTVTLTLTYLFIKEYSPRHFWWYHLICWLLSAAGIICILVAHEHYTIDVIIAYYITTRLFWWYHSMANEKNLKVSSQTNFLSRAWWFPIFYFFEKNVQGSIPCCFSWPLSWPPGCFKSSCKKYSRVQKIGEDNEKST
Experimental: Add […] SMS2 pure enzyme DDM solution (total protein content 1.5 μg/μL), 1 μL test compound in DMSO solution or blank DMSO solution, 79.7 μL DDM buffer to 1.5 mL Eppendorf tube, vortex 30 seconds, let stand at room temperature for 5 min. Then add 20 μL DDM buffer containing 1 μL DMPC in ethanol (40 mmol/L) and 1 μL C6-NBD-Ceramide in DMSO (1.16 mmol/L). After vortexing for 30 seconds, Incubate for 0.5 h under water bath at 37° C. Then remove, add 200 μL of absolute ethanol, and vortex for 30 seconds. Take out 200 μL of the mixture and store it at 4° C. for high performance liquid chromatography analysis.
as §1
The DMSO stock solution of under tested compound (6 mM) was diluted stepwise into five concentration gradient. 1 μL solution of each concentration was added into the trial system to prepare samples with the method mentioned in the first step of application case 15. The Asm values of the five concentration solution of tested compound were measured (compound D2 is a positive control), and the inhibition rate under the five concentration were calculated and fitted to obtain median inhibitory concentration (IC50). Each compound was measured three parallel groups. SMS2 median inhibitory concentration and SMS1 single inhibitory concentration (50 μM) of Scheme I-1˜I-38, and SMS1 median inhibitory concentration of some compounds are listed below in Table 1.

Row | Structure (SMILES) | inhibition at 50 µM ([1]; single concentration 50 μM) | IC50 [2] | Selectivity ratio [2] | IC50 [1] | SMS1 Inhibition (50 μM) ([1]; single concentration 50 μM)
1 | COc1ccc(COc2cccc3onc(Nc4cccnc4)c23)cc1 [Scheme I-18, 4-((4-Methoxybenzyl)oxy)-N-(pyridin-3-yl)benzo[d]isoxazol-3-amine] | -5% |  |  |  | 
2 | FC(F)(F)c1ccccc1COc1cccc2onc(Nc3cccnc3)c12 [Scheme I-13, 4-((2-Trifluoromethylbenzyl)oxy)-N-(pyridin-3-yl)benzo[d]isoxazole-3-amine] | 21% | 255 nM |  |  | 
3 | Clc1ccccc1COc1cccc2onc(Nc3cccnc3)c12 [Scheme I-7, 4-((2-chlorobenzyl)oxy)-N-(pyridin-3-yl)benzo[d]isoxazol-3-amine] |  | 270 nM | 292 | 79000 nM | 41%
4 | c1ccc(COc2cccc3ccnc(Nc4cccnc4)c23)cc1 [Scheme I-32, 8-(benzyloxy)-N-(pyridin-3-yl)isoquinolin-1-amine] | 18% |  |  |  | 
5 | FC(F)(F)Oc1cccc(COc2cccc3onc(Nc4cccnc4)c23)c1 [Scheme I-20, 4-((3-Trifluoromethoxybenzyl)oxy)-N-(pyridin-3-yl)benzo[d]-isoxazol-3-amine] | 30% | 1270 nM |  |  | 
6 | CCN(CC)CC(=O)Nc1noc2cccc(OCc3cc(F)ccc3Cl)c12 [Scheme I-35, N-(4-((2-chloro-5-fluorobenzyl)oxy)benzo[d]isoxazol-3-yl)-2-(diethylamino) acetamide] | 11% | > 10000 nM |  |  | 
7 | Clc1cccc(COc2cccc3onc(Nc4cccnc4)c23)c1 [Scheme I-8, 4-((3-chlorobenzyl)oxy)-N-(pyridin-3-yl)benzo[d]isoxazol-3-amine] | 44% | 94 nM | 840 | 79000 nM | 
8 | Fc1cccc(F)c1COc1cccc2onc(Nc3cccnc3)c12 [Scheme I-27, 4-((2,6-Difluorobenzyl)oxy)-N-(pyridin-3-yl)benzo[d]isoxazol-3-amine] | 30% | 720 nM |  |  | 
9 | Fc1ccc(Cl)c(COc2cccc3onc(Nc4cccnc4)c23)c1 [Scheme I-2, 4-((2-Chloro-5-fluorobenzyl)oxy)-N-(pyridin-3-yl)benzo[d]-isoxazol-3-amine] | 44% | 102 nM | 539 | 55000 nM | 
10 | FC(F)(F)c1cccc(COc2cccc3onc(Nc4cccnc4)c23)c1 [Scheme I-14, 4-((3-Trifluoromethylbenzyl)oxy)-N-(pyridin-3-yl)benzo[d]isoxazole-3-amine] | 25% | 486 nM |  |  | 
11 | O=C(CN1CCCCC1)Nc1noc2cccc(OCc3cc(F)ccc3Cl)c12 [Scheme I-37, N-(4-((2-chloro-5-fluorobenzyl)oxy)benzo[d]isoxazol-3-yl)-2-(piperidin-1-yl)acetamide] | 60% | > 10000 nM |  |  | 
12 | FC(F)(F)Oc1ccccc1COc1cccc2onc(Nc3cccnc3)c12 [Scheme I-19, 4-((2-Trifluoromethoxybenzyl)oxy)-N-(pyridin-3-yl)benzo[d]-isoxazol-3-amine] | 59% | 107 nM | 726 | 67000 nM | 
13 | Clc1ccc(COc2cccc3onc(Nc4cccnc4)c23)cc1 [Scheme I-9, 4-((4-chlorobenzyl)oxy)-N-(pyridin-3-yl)benzo[d]isoxazol-3-amine] | 5% | > 10000 nM |  |  | 
14 | FC(F)(F)Oc1ccc(Cl)cc1COc1cccc2onc(Nc3cccnc3)c12 [Scheme I-3, 4-((5-chloro-2-(trifluoromethoxy)benzyl)oxy)-N-(pyridin-3-yl)benzo[d]isoxazol-3-amine] | 49% | 2000 nM |  |  | 
15 | Cc1cccc(COc2cccc3onc(Nc4cccnc4)c23)c1 [Scheme I-11, 4-((3-methylbenzyl)oxy)-N-(pyridin-3-yl)benzo[d]isoxazol-3-amine] | 20% | 190 nM |  |  | 
16 | Fc1ccc(COc2cccc3onc(Nc4cccnc4)c23)cc1 [Scheme I-6, 4-((4-fluorobenzyl)oxy)-N-(pyridin-3-yl)benzo[d]isoxazol-3-amine] | 7% | 1520 nM |  |  | 
17 | O=C(CN1CCOCC1)Nc1noc2cccc(OCc3cc(F)ccc3Cl)c12 [Scheme I-38, N-(4-((2-chloro-5-fluorobenzyl)oxy)benzo[d]isoxazol-3-yl)-2-morpholinoacetamide] | -1% | > 10000 nM |  |  | 
18 | Fc1ccc(Cl)c(COc2cccc3onc(Nc4cncnc4)c23)c1 [Scheme I-33, 4-((2-chloro-5-fluorobenzyl)oxy)-N-(pyrimidin-5-yl)benzo[d]isoxazol-3-amine] | 60% | 860 nM |  |  | 
19 | O=C(CN1CCCC1)Nc1noc2cccc(OCc3cc(F)ccc3Cl)c12 [Scheme I-36, N-(4-((2-chloro-5-fluorobenzyl)oxy)benzo[d]isoxazol-3-yl)-2-(pyrrolidin-1-y) acetamide] | 9% | > 10000 nM |  |  | 
20 | c1ccc(-c2cc(COc3cccc4onc(Nc5cccnc5)c34)ccn2)cc1 [Scheme I-39, 4-((2-phenylpyridin-4-yl)methoxy)-N-(pyridin-3-yl)benzo[d]isoxazol-3-amine] | -6% | 13000 nM |  |  | 
21 | FC(F)(F)Oc1ccc(COc2cccc3onc(Nc4cccnc4)c23)cc1 [Scheme I-21, 4-((4-Trifluoromethoxybenzyl)oxy)-N-(pyridin-3-yl)benzo[d]-isoxazol-3-amine] | 5% | > 10000 nM |  |  | 
22 | Fc1ccccc1COc1cccc2onc(Nc3cccnc3)c12 [Scheme I-4, 4-((2-fluorobenzyl)oxy)-N-(pyridin-3-yl)benzo[d]isoxazol-3-amine] | 6% | 660 nM |  |  | 
23 | CN(c1cccnc1)c1noc2cccc(OCc3c(Cl)cccc3Cl)c12 [Scheme I-28, 4-((2,6-dichlorobenzyl)oxy)-N-methyl-N-(pyridin-3-yl)benzo[d]isoxazol-3-amine] | 29% |  |  |  | 
24 | Cc1ccc(COc2cccc3onc(Nc4cccnc4)c23)cc1 [Scheme I-12, 4-((4-methylbenzyl)oxy)-N-(pyridin-3-yl)benzo[d]isoxazol-3-amine] | 5% |  |  |  | 
25 | CN(C)CC(=O)Nc1noc2cccc(OCc3cc(F)ccc3Cl)c12 [Scheme I-34, N-(4-((2-chloro-5-fluorobenzyl)oxy)benzo[d]isoxazol-3-yl)-2-(dimethylamino)acetamide] | 3% |  |  |  | 
26 | CC(C)(C)OC(=O)N1CCC(CCCOc2cccc3onc(Nc4cccnc4)c23)CC1 [Scheme I-40, Tert-Butyl 4-(3-((3-(pyridin-3-ylamino)benzo[d]isoxazol-4-yl)oxy)propyl)piperidine-1-carboxylate] | 9% |  |  |  | 
27 | N#Cc1ccc(COc2cccc3onc(Nc4cccnc4)c23)cc1 [Scheme I-24, 4-((4-Cyanobenzyl)oxy)-N-(pyridin-3-yl)benzo[d]isoxazol-3-amine] | -18% |  |  |  | 
28 | Cn1nc(Nc2cccnc2)c2c(OCc3ccccc3)cccc21 [Scheme I-30, 4-(benzyloxy)-1-methyl-N-(pyridin-3-yl)-1H-indazol-3-amine] | 1% |  |  |  | 
29 | c1ccc(COc2cccc3[nH]nc(Nc4cccnc4)c23)cc1 [Scheme I-29, 4-(benzyloxy)-N-(pyridin-3-yl)-1H-indazol-3-amine] | -7% |  |  |  | 
